± gives the standard deviation.

The nature of the data set: chemical recovery from spiked human plasma; higher = better extraction. As to conditions: pooled human plasma.
Setting [1] is: extraction method: PES+SPE (3 d PDMS equilibration then HLB SPE).
Where [2] appears, read: extraction method: SPE only (HLB 96-well).
[3] abbreviates: extraction method: solvent precipitation (ACN + hexane).
Setting [4] is: extraction method: SPE only (HLB 96-well), PES comparison experiment.

On to `CNC(=O)c1ccccc1` [N-Methylbenzamide], for which the chemical recovery reads like this: under setting [1], 35 ± 8.6%; under setting [2], 38.2 ± 3%; under setting [3], 88 ± 3.1%.
Consider `CNS(=O)(=O)c1ccccc1` [N-Methylbenzenesulfonamide], for which, under setting [3], the chemical recovery amounted to 77.4 ± 3.4%.
On the same count and under the same terms, the result for `CCN(CC)C(=O)C(C)Oc1cccc2ccccc12` (stereo unspecified) [Napropamide] reads 70.6 ± 2.5%.
Take `CN1CCC[C@H]1c1cccnc1` [Nicotine]: the chemical recovery is, setting by setting: under setting [1], 0.141 ± 0.063%; under setting [2], 0.399 ± 0.15%; under setting [3], 49.1 ± 4.3%.
With `O=C1CN(/N=C/c2ccc([N+](=O)[O-])o2)C(=O)N1` [Nitrofurantoin], under setting [4], the chemical recovery turned out to be 54.8 ± 8.6%.
Take `CCn1cc(C(=O)O)c(=O)c2cc(F)c(N3CCNCC3)cc21` [Norfloxacin]: under setting [3], the chemical recovery is 63.3 ± 5.8%.
For `CC1(C)CC(NC(=O)c2cccc(C(=O)NC3CC(C)(C)NC(C)(C)C3)c2)CC(C)(C)N1` [Nylostab-S-EED], the chemical recovery under setting [3] turned out to be 70.4 ± 5.2%.
The compound `CCCCCCCCOC(=O)CCc1cc(C(C)(C)C)c(O)c(C(C)(C)C)c1` [Octyl-3,5-di-tert-butyl-4-hydroxyhydrocinnamate] yielded a chemical recovery under setting [4] of 0.29 ± 0.58%.
Regarding `CCCCC(CC)COC(=O)C=Cc1ccc(OC)cc1` (stereo unspecified) [Octyl-methoxycinnamate], the chemical recovery reads like this: under setting [2], 10.2 ± 2.1%; under setting [3], 141 ± 20%.
Consider `COc1ccc2[nH]c(SCc3ncc(C)c(OC)c3C)nc2c1` [Omeprazole-sulfide], for which the chemical recovery under setting [1] stood at 19.8 ± 2.5%, the chemical recovery under setting [2] was 42 ± 3.9% and the chemical recovery under setting [3] stood at 72.5 ± 3.6%.
For `Cc1nccn1CC1CCc2c(c3ccccc3n2C)C1=O` (stereo unspecified) [Ondansetron], the chemical recovery under setting [1] worked out at 15.3 ± 3.4%, the chemical recovery under setting [2] came to 32.6 ± 2%, the chemical recovery under setting [4] worked out at 45.7 ± 7.4% and the chemical recovery under setting [3] worked out at 73.2 ± 2.9%.
Turning to `CCCCCCCCCCC[C@@H](C[C@@H]1OC(=O)[C@H]1CCCCCC)OC(=O)[C@H](CC(C)C)NC=O` [Orlistat], the chemical recovery worked out at 3.21 ± 3.3% under setting [2] and 6 ± 3.7% under setting [4].
As for `CNC(=O)O/N=C(\SC)C(=O)N(C)C` [Oxamyl], the chemical recovery stood at 28 ± 2.6% under setting [2] and 6.16 ± 4.2% under setting [3].
For `NC(=O)N1c2ccccc2CC(=O)c2ccccc21` [Oxcarbazepine], the chemical recovery under setting [3] came out at 0.126 ± 0.22%.
In turn, `CCCCC(CC)COC(=O)c1ccc(N(C)C)cc1` (stereo unspecified) [Padimate-O] returned a chemical recovery under setting [2] of 22.8 ± 4.1%.
Still for that read-out and setting: next, `CCCCCCCCCCCCCCCC(=O)NCCO` [Palmitoylethanolamide]: 33.5 ± 8.8%.
Regarding `CCCC(Cn1cncn1)c1ccc(Cl)cc1Cl` (stereo unspecified) [Penconazole], the chemical recovery reads like this: under setting [1], 51.3 ± 5.9%; under setting [2], 65.9 ± 1.6%; under setting [3], 67.7 ± 4.2%.
On to `O=C(Nc1ccccc1)N(Cc1ccc(Cl)cc1)C1CCCC1` [Pencycuron], for which the chemical recovery reads like this: under setting [1], 54 ± 6.3%; under setting [2], 28.4 ± 3.3%.
For the compound `COc1cnc(OC)n2nc(NS(=O)(=O)c3c(OCC(F)F)cccc3C(F)(F)F)nc12` [Penoxsulam], the chemical recovery reads like this: under setting [1], 53.1 ± 7.8%; under setting [2], 42.2 ± 4.3%; under setting [3], 78.9 ± 3.6%.
Consider `CCc1c(Br)c(Br)c(Br)c(Br)c1Br` [Pentabromoethylbenzene], for which the chemical recovery reads like this: under setting [1], 53.3 ± 3.7%; under setting [2], 3.34 ± 1.2%.
In the case of `Cc1c(Br)c(Br)c(Br)c(Br)c1Br` [Pentabromotoluene], the chemical recovery was found to be 61.6 ± 3.7% under setting [1] and 6.76 ± 2.3% under setting [2].
As to `NC(=O)C(F)(F)C(F)(F)F` [Pentafluoropropionamide], the chemical recovery by setting is: under setting [1], 9.12 ± 7.6%; under setting [2], 0.923 ± 0.9%; under setting [3], 0.174 ± 0.24%.
As for `CCCC(C)C1(CC)C(=O)NC(=O)NC1=O` (stereo unspecified) [Pentobarbital], the chemical recovery under setting [1] turned out to be 49.6 ± 5.1%, the chemical recovery under setting [2] was determined as 43.8 ± 2% and the chemical recovery under setting [3] worked out at 75.7 ± 6.9%.
On the same counts, the results for `O=C(O)C(F)(F)C(F)(F)C(F)(F)OC(F)(F)F` [Perfluoro-4-methoxybutanoic-acid] are 43.5 ± 3.9%, 36.7 ± 2.8% and 78.7 ± 3.5%.
For `O=S(=O)(O)C(F)(F)C(F)(F)C(F)(F)C(F)(F)F` [Perfluorobutanesulfonic-acid], the chemical recovery under setting [1] is 49.5 ± 3.7%, the chemical recovery under setting [2] came to 45.3 ± 3.3% and the chemical recovery under setting [3] was 81.9 ± 2.1%.
On the same counts, the results for `O=S(=O)(O)C(F)(F)C(F)(F)C(F)(F)C(F)(F)C(F)(F)C(F)(F)C(F)(F)F` [Perfluoroheptanesulfonic-acid] are 38.6 ± 6.2%, 35.6 ± 2% and 61.6 ± 3.8%.
`O=S(=O)(O)C(F)(F)C(F)(F)C(F)(F)C(F)(F)C(F)(F)C(F)(F)F` [Perfluorohexanesulfonic-acid]: the chemical recovery worked out at 40.9 ± 4.1% under setting [1] and 34.4 ± 2.7% under setting [2].
Turning to `O=C(O)C(F)(F)C(F)(F)C(F)(F)C(F)(F)C(F)(F)F` [Perfluorohexanoic acid], the chemical recovery by setting is: under setting [1], 40.2 ± 4.7%; under setting [2], 35.5 ± 3.9%; under setting [4], 44.4 ± 8.7%; under setting [3], 75.3 ± 4.1%.
`O=P(O)(O)C(F)(F)C(F)(F)C(F)(F)C(F)(F)C(F)(F)C(F)(F)F` [Perfluorohexylphosphonic-acid]: the chemical recovery is, setting by setting: under setting [1], 37.5 ± 6%; under setting [2], 31.2 ± 4.6%; under setting [3], 26.7 ± 9.3%.
As to `O=C(O)C(F)(F)C(F)(F)C(F)(F)C(F)(F)C(F)(F)C(F)(F)C(F)(F)C(F)(F)F` [Perfluorononanoic-acid], the chemical recovery by setting is: under setting [2], 8.32 ± 1.8%; under setting [3], 66.3 ± 5.1%.
On to `NS(=O)(=O)C(F)(F)C(F)(F)C(F)(F)C(F)(F)C(F)(F)C(F)(F)C(F)(F)C(F)(F)F` [Perfluorooctanesulfonamide], for which the chemical recovery under setting [2] is 32 ± 4.9% and the chemical recovery under setting [4] stood at 38.8 ± 9.3%.
Take `O=S(=O)(O)C(F)(F)C(F)(F)C(F)(F)C(F)(F)C(F)(F)C(F)(F)C(F)(F)C(F)(F)F` [Perfluorooctanesulfonic acid]: the chemical recovery under setting [2] amounted to 26.8 ± 0.38%.
For `O=C(O)C(F)(F)C(F)(F)C(F)(F)C(F)(F)C(F)(F)C(F)(F)C(F)(F)F` [Perfluorooctanoic acid], the chemical recovery came out at 30.2 ± 2.8% under setting [2], 33.6 ± 8.8% under setting [4] and 89.3 ± 19% under setting [3].
On to `O=S(=O)(O)C(F)(F)C(F)(F)C(F)(F)C(F)(F)C(F)(F)F` [Perfluoropentanesulfonic-acid], for which the chemical recovery came to 47.1 ± 4.2% under setting [1], 36.5 ± 4.8% under setting [2] and 72.9 ± 3.6% under setting [3].
Turning to `O=C(O)C(F)(F)C(F)(F)C(F)(F)C(F)(F)F` [Perfluoropentanoic-acid], the chemical recovery runs as follows: under setting [1], 32.1 ± 3.4%; under setting [2], 31.1 ± 3.3%; under setting [3], 78.1 ± 8.5%.
For `O=C(O)C(F)(F)C(F)(F)F` [Perfluoropropanoic-acid] the same measures were 2.17 ± 0.57%, 3.57 ± 2.9% and 86.2 ± 7.5%.
As for `O=C(O)C(F)(F)C(F)(F)C(F)(F)C(F)(F)C(F)(F)C(F)(F)C(=O)O` [Perfluorosuberic-acid-], the chemical recovery was determined as 0.975 ± 0.36% under setting [1], 5.56 ± 1.8% under setting [2] and 71.9 ± 7.3% under setting [3].
For the compound `O=C(O)C(F)(F)C(F)(F)C(F)(F)C(F)(F)C(F)(F)C(F)(F)C(F)(F)C(F)(F)C(F)(F)C(F)(F)C(F)(F)C(F)(F)C(F)(F)F` [Perfluorotetradecanoic acid], the chemical recovery under setting [3] is 41.3 ± 11%.
Consider `O=C(O)C(F)(F)C(F)(F)C(F)(F)C(F)(F)C(F)(F)C(F)(F)C(F)(F)C(F)(F)C(F)(F)C(F)(F)F` [Perfluoroundecanoic-acid], for which the chemical recovery under setting [2] was determined as 26.8 ± 6%.
Regarding `CC1(C)C(C=C(Cl)Cl)C1C(=O)OCc1cccc(Oc2ccccc2)c1` (stereo unspecified) [Permethrin], the chemical recovery under setting [1] amounted to 55 ± 9.7%, the chemical recovery under setting [2] was found to be 2.59 ± 1% and the chemical recovery under setting [3] was 35.4 ± 3.1%.
As to `NCCc1ccccc1` [Phenethylamine], the chemical recovery is, setting by setting: under setting [2], 6.63 ± 4.2%; under setting [3], 47.1 ± 1.7%.
As to `c1ccc2c(c1)Nc1ccccc1S2` [Phenothiazine], under setting [3], the chemical recovery turned out to be 41.2 ± 4.4%.
On to `CCC(C(N)=O)(C(N)=O)c1ccccc1` [Phenylethylmalonamide], for which the chemical recovery runs as follows: under setting [1], 43.1 ± 4.2%; under setting [2], 37.2 ± 2.4%; under setting [4], 60.3 ± 8.1%.
For the compound `NNc1ccccc1` [Phenylhydrazine], the chemical recovery under setting [3] came to 40.7 ± 8.9%.
Turning to `O=P(O)(O)Oc1ccccc1` [Phenylphosphate], under setting [1], the chemical recovery turned out to be 0.213 ± 0.049%.
Turning to `CCOP(=S)(OCC)SCSCC` [Phorate], the chemical recovery under setting [1] worked out at 0.327 ± 0.035%, the chemical recovery under setting [2] stood at 10.2 ± 3.3% and the chemical recovery under setting [3] was 37.8 ± 3.6%.
Turning to `N#Cc1ccccc1C#N` [Phthalonitrile], the chemical recovery under setting [2] is 8.49 ± 8.2%.
In the case of `Nc1c(Cl)c(Cl)nc(C(=O)O)c1Cl` [Picloram], the chemical recovery by setting is: under setting [1], 29.5 ± 5.1%; under setting [2], 34.9 ± 2.7%; under setting [3], 63.3 ± 3.8%.
Consider `CC(C)NCC(O)COc1cccc2[nH]ccc12` (stereo unspecified) [Pindolol], for which the chemical recovery amounted to 42.3 ± 1.6% under setting [1] and 76 ± 2.5% under setting [3].
Consider `CCc1cc(C)cc(CC)c1-c1c(OC(=O)C(C)(C)C)n2n(c1=O)CCOCC2` [Pinoxaden], for which the chemical recovery was 0.0892 ± 0.042% under setting [1] and 21.1 ± 3.2% under setting [2].
Regarding `NC(=O)C1(N2CCCCC2)CCN(CCCC(=O)c2ccc(F)cc2)CC1` [Pipamperone], the chemical recovery reads like this: under setting [1], 4.98 ± 1.1%; under setting [2], 28.3 ± 3.7%; under setting [3], 71.4 ± 4.4%.
Turning to `CC[C@H](C)C(=O)O[C@H]1C[C@H](O)C=C2C=C[C@H](C)[C@H](CC[C@@H](O)C[C@@H](O)CC(=O)O)[C@H]21` [Pravastatin], the chemical recovery is, setting by setting: under setting [1], 31.6 ± 3.5%; under setting [2], 28.1 ± 2.9%; under setting [4], 58.6 ± 5.1%; under setting [3], 67 ± 6.7%.
Take `CC(C)C[C@H](CN)CC(=O)O` [Pregabalin]: the chemical recovery by setting is: under setting [2], 8.64 ± 5.9%; under setting [3], 66 ± 7.2%.
With `CCC1(c2ccccc2)C(=O)NCNC1=O` [Primidone], the chemical recovery by setting is: under setting [1], 41.5 ± 2.6%; under setting [2], 36.6 ± 3.8%; under setting [4], 41.9 ± 4.5%; under setting [3], 76.5 ± 3.6%.
For `CCCN(CCOc1c(Cl)cc(Cl)cc1Cl)C(=O)NC=O` [Prochloraz BTS445-96], the chemical recovery under setting [3] worked out at 71.33 ± 0.59%.
Compound `CC12CC1(C)C(=O)N(c1cc(Cl)cc(Cl)c1)C2=O` (stereo unspecified) [Procymidone] registered a chemical recovery under setting [2] of 18.9 ± 2.2%.
The same measure, in the same setting: the result for `CCCSP(=O)(OCC)Oc1ccc(Br)cc1Cl` (stereo unspecified) [Profenofos] reads 39.9 ± 5.7%.
On to `CCCOC(=O)NCCCN(C)C` [Propamocarb], for which the chemical recovery turned out to be 6.68 ± 4.3% under setting [2] and 54.9 ± 3.7% under setting [3].

For the origin of these results see the supplement of paper PMC10702517.
